Data published in the NIST ThermoML archive (doi:10.1016/j.fluid.2014.04.027).

Experiment: xn = mol fraction of the nth substance listed
Conditions: 100 kPa, Liquid, Alternating current cell with electrodes

CCCCCCCCCCCCOS(=O)(=O)[O-].[Na+] [sodium dodecyl sulfate] + O
electrical conductivity [S/m]
Conditions | 298.15 K | 308.15 K | 318.15 K
x1 = 6.348e-05 | 0.024 | 0.0249 | 0.0283
x1 = 6.643e-05 | 0.0245 | 0.0255 | 0.029
x1 = 6.967e-05 | 0.0252 | 0.0264 | 0.0298
x1 = 7.324e-05 | 0.0261 | 0.0273 | 0.0306
x1 = 7.72e-05 | 0.0269 | 0.0282 | 0.0317
x1 = 8.16e-05 | 0.0278 | 0.0292 | 0.0329
x1 = 8.4e-05 | 0.0284 | 0.0298 | 0.0334
x1 = 8.655e-05 | 0.0291 | 0.0304 | 0.034
x1 = 8.925e-05 | 0.0297 | 0.0311 | 0.0347
x1 = 9.213e-05 | 0.0305 | 0.0317 | 0.0355
x1 = 9.519e-05 | 0.0311 | 0.0323 | 0.0362
x1 = 9.847e-05 | 0.0317 | 0.0332 | 0.0371
x1 = 0.000102 | 0.0327 | 0.0339 | 0.038
x1 = 0.0001058 | 0.0335 | 0.0349 | 0.0389
x1 = 0.0001098 | 0.0345 | 0.0359 | 0.04
x1 = 0.0001142 | 0.0353 | 0.037 | 0.0412
x1 = 0.000119 | 0.0365 | 0.0382 | 0.0424
x1 = 0.0001241 | 0.0375 | 0.0394 | 0.0436
x1 = 0.0001298 | 0.0388 | 0.0408 | 0.045
x1 = 0.0001359 | 0.0401 | 0.0423 | 0.0465
x1 = 0.0001427 | 0.0414 | 0.0439 | 0.0481
x1 = 0.0001502 | – | 0.0455 | 0.0498
x1 = 0.0001586 | – | – | 0.052
